Patent US12600728B2, “Interleukin-17 inhibitors” (priority 2020, dated 2026)
Read-outs that look alike come from different tables or passages of the source.

Columns and labels:
[1] = target: biotinylated human IL-17A / AF647-labeled human IL-17RA (Homo sapiens, UniProt Q16552); assay: Human IL-17A×IL-17RA TR-FRET assay; format: binding; details: TR-FRET, read-out: IL17AA FRET/ IL17Rawt IC50
Summary of the method: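 Compounds tested in duplicate at each concentration; neutral controls contain all components with DMSO in place of compound.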

[2] = target: recombinant human IL-17AA (Homo sapiens, UniProt Q16552); assay: IL-6 release from NHDF cells, IL-17AA plus TNF-α stimulation; format: cell-based; details: NHDF cells, 24 hours, IL-6 by ELISA, read-out: IL17AA + TNF IC50 IL-6
recombinant human IL-17AA, sequence (Q16552 24-155): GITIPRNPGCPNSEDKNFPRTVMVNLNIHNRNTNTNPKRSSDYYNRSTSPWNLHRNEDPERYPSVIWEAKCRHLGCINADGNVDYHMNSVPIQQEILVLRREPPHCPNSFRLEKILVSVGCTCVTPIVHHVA
Summary of the method: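 IL-17-specific IL-6 release from NHDF cells adhered overnight; compounds pre-incubated 30 min at room temperature with human IL-17AA plus TNF-α, then 24 h on cells at 37° C. Final DMSO 0.1% or plasma 20%; IL-6 by ELISA (450 nm). TNF-α-only IL-6 subtracted before IC50 fit.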

[3] = biotinylated human IL-17A 5 nM, AF647-labeled human IL-17RA 30 nM

biotinylated human IL-17A / AF647-labeled human IL-17RA, sequence (Q16552 24-155): as above

| Compound | IC50 [1, 3] [nM] | IC50 ([2]; IL-17AA 30 pM plus TNF-α 6 pM) [nM] | melting point [°C] | IC50 ([1]; 5 nM IL-17A, 30 nM IL-17RA) [nM] | IC50 ([2]; IL-17AA 30 pM + TNF-α 6 pM) [nM] |
| --- | --- | --- | --- | --- | --- |
| CCc1nocc1C(=O)N[C@H](C(=O)Nc1ccc(-c2c(Cl)cc[n+]([O-])c2C)cc1)[C@H]1CCCC(F)(F)C1 [Example 6, 4-chloro-3-(4-((S)-2-((S)-3,3-difluorocyclohexyl)-2-(3-ethylisoxazole-4-carboxamido)acetamido)phenyl)-2-methylpyridine 1-oxide] | 48 | 5 | 247 to 250 | – | – |
| CCc1nocc1C(=O)N[C@H](C(=O)Nc1ccc(-c2c(C(F)(F)F)cc[n+]([O-])c2C)cc1)C1CCCC1 [Example 5, (S)-3-(4-(2-cyclopentyl-2-(3-ethylisoxazole-4-carboxamido)acetamido)phenyl)-2-methyl-4-(trifluoromethyl)pyridine 1-oxide] | 28 | 9 | 149 to 151 | – | – |
| Cc1c(-c2ccc(NC(=O)[C@@H](NC(=O)c3ccc4n3CCNC4)C3CCC(F)(F)CC3)cc2)c(Cl)cc[n+]1[O-] [Example 196, (S)-4-chloro-3-(4-(2-(4,4-difluorocyclohexyl)-2-(1,2,3,4-tetrahydropyrrolo[1,2-a]pyrazine-6-carboxamido)acetamido)phenyl)-2-methylpyridine 1-oxide] | – | – | – | 181 | 12.6 |
